According to patent US7157449B2, “Medicament for the treatment of diseases caused by parasitic protozoa” (priority 2000, dated 2007):
“Also recorded” adds a separate entry of the source. Each block holds one compound with its values, some of them ahead of it.

Columns and labels:
T. brucei [1] = experiment: NTP (CTP) pools in trypanosomes after treatment with CTP synthetase inhibitors; type: cell-based; details: for size of the CTP pool after addition of cytidine or cytosine: up to 15 mM cytidine or 1 mM cytosine, harvested one hour later; for effect on the CTP pool: 1 h incubation, 25 and 100 μM DON, 100 μM acivicin, 25 μM CPEC
Experimental: Samples without drug (control), with 25 and 100 μM DON (DON25 and DON100, respectively), with 100 μM acivicin (Aci100) and with 25 μM CPEC (CPEC25) are shown. The unit of the ordinata is the same as in FIG. 1. The control is an average of two experiments while the others are single measurements.
(§1) Procyclic insect forms of T. brucei brucei AnTat 1.1 were cultured in SDM-79 medium (Brun, R. and Schoenenberger, M. (1979) Acta Trop. 36, 289–292) supplemented with 10% heat-inactivated fetal bovine serum at 27° C. Culture-adapted bloodstream forms of the T. brucei brucei cell line TC221 (Hirumi, H., Hirumi, K., Doyle, J. J. and Cross, G. A. M. (1980) Parasitology 80, 371–382) were propagated in Hirumi's modified Iscove's medium-9 (Hirumi, H. and Hirumi, K. (1989) J. Parasitology 75, 985–989) supplemented with 5% fetal bovine serum at 37° C. in a humidified atmosphere containing 7% CO2. The cultured parasites were harvested in the late logarithmic growth phase.
1–3×10^8 trypanosomes were collected and subsequently disintegrated by 500 μl ice-cold 0,6 M trichloroacetic acid supplemented with 15 mM MgCl2. The trichloroacetic acid was removed by two extractions with 720 μl 1,1,2-trichlorotrifluoroethan (78%)/trioctylamine (22%) and the aqueous phase was saved. ⅕ of the sample was evaporated to dryness in a Speedvac (Savant), loaded onto a 4.6×125 mm Partisphere SAX-column and run by HPLC in 0,5 M ammonium phosphate pH 3,4 containing 2,5% acetonitrile at 1.5 ml/min. The procedure is further explained in previous work by the present inventors, see Hofer, A., Ekanem, J. T. and Thelander, L. (1998) J. Biol. Chem. 273, 34098–34104. A connection of the HPLC to a Flow Scintillation Analyzer (Radiomatic 150 TR, Packard) made it possible to check the radioactivity in the chromatographic peaks. For radioactivity measurements, the whole sample was usually loaded onto the column. The nucleotides were quantified by measuring the peak heights and comparing them to a standard curve.
(§2) 6-diazo-5-oxo-L-norleucine (DON), acivicin and azaserine were bought from Sigma. They were dissolved in water and stored as 5 mM solutions at −20° C. Cyclopentenyl cytosine was a kind gift from Grant McClarty at the Dept. of Medical Microbiology, University of Manitoba, 730 William Ave, Winnipeg, Manitoba R3E OW3, Canada. It was stored as a 50 mM solution in dimethyl sulfoxide (DMSO) at 4° C. The final concentration of DMSO in the growth media of the trypanosomes never became more than 0.5% and that had no effect on the NTP pools or the proliferation of the parasites.
The absolute dependence on de novo synthesis for CTP production might be exploited for chemotherapy purposes since the host can be rescued by cytidine. There are two major classes of compounds that inhibit CTP synthetase, nucleoside analogues and glutamine analogues. One nucleoside analogue, cyclopentenyl cytosine (CPEC), and two glutamine analogues, 6-diazo-5-oxo-L-norleucin (DON) and acivicin, were tested and it was observed how the CTP pool changed during the one-hour incubation period (FIG. 3). […] Next, the effect of the drugs on trypanosome growth was investigated. […] As expected. CPEC (250 μM) had no effect in this experiment either (data not shown).

T. brucei [2] = experiment: Effect of drugs on trypanosome proliferation; type: cell-based; details: for rescue of trypanosomes from the proliferation block asserted by DON: cytidine up to 5 mM or cytosine 1 mM; for effect on trypanosome proliferation: DON 1, 5 μM, acivicin 1, 5, 25 μM, CPEC 250 μM, azaserine data not shown
Experimental: In A), the trypanosomes were treated with no drug (squares), 1 μM DON (triangles) or 5 μM DON (diamonds). In (B), the trypanosomes were treated with no drug (filled squares), 1 μM acivicin (triangles), 5 μM acivicin (diamonds) or 25 μM acivicin (open squares). The number of trypanosomes was counted at various time-points after the drug exposure had started. It appears that DON and acivicin were both very active.
The trypanosomes were treated with DON for 1 h and then harvested and resuspended in drug-free medium. The number of trypanosomes was counted at various time-points after the release had started (triangles). A control experiment was performed where the trypanosomes were not exposed to DON but otherwise were treated exactly the same way as the drug-treated trypanosomes (squares). Each point is an average of two experiments with the standard deviation indicated by error bars.
as §1, §2
DON is not stable in the bloodstream and has a half-life of only a few hours in humans (Kovach, J. S., Eagan, R. T., Pawis, G., Rubin, J., Creagan, E. T. and Moertel. C. G. (1981) Cancer Treat. Rep. 65, 1031–1036; Rahman, A., Luc, V., Smith, F. P., Vrown, J., Schein, P. S. and Woolley, P. V. (1981); and Sullivan, M. P., Nelson, J. A., Feldman, S. and Nguyen, B. V. (1988) Cancer Chemother. Pharmac. 21, 78–84). Therefore, it was tested for how long the effect of a short pulse of DON lasts on trypanosome proliferation. In FIG. 5, the trypanosomes have been treated with 5 μM DON for 1 h. After the incubation, the trypanosomes were collected by centrifugation, the pellet was washed with media not containing DON and resuspended in the same media and the trypanosomes were put back into the incubator. The amount of trypanosomes was continuously recorded during the incubation. Control trypanosomes were treated the same way except that the one-hour incubation was without DON.

mouse BALB/c fibroblasts = experiment: Proliferation of BALB/c fibroblasts with DON with or without hypoxanthine; type: cell-based
Experimental: The fibroblasts were seeded at a density so low that they could not get confluent within three days. […] At this point the amount of cells was indirectly counted by a method described in the section “Material and methods” below.
Mouse Balb/c fibroblasts were cultivated as monolayers in Dulbecco's Modified Eagles Medium (Sigma) supplemented with L-glutamine (0.584 g/l) and 10% heat-inactivated horse serum at 37° C. in a humidified atmosphere containing 7% CO2. The amount of fibroblasts on each plate was determined by a method were the cell-containing plates were washed with PBS pH 7.5, the cells disintegrated by a 10 min. incubation with 0.2 M NaOH at 50° C. and then the OD260-310 was measured (Suttle, D. P. and Stark, G. R. (1979) J. Biol. Chem. 254, 4602–4607). The cells were collected before confluence.
The effect of DON on trypanosomes and mammalian cells was compared as follows. […] Thus, it needed to be investigated whether or not the anti-proliferation effect on mammalian cells could be abolished, while still keeping the trypanocidal activity. In mammalian cells, DON is a powerful inhibitor of de novo purine biosynthesis. In FIG. 6, two experiments are included wherein the block on de novo purine biosynthesis have been by-passed by 10 and 160 μM hypoxanthine, respectively. Hypoxanthine is a naturally occurring purine base in the bloodstream of mammals.

Plasmodium falciparum = experiment: IC50 against parasite (Swiss Tropical Institute standard method); type: cell-based
Text: (§3) In order to determine in what range DON is effective against Plasmodium falciparum, the cause of malaria, Swiss Tropical Institute (Socinstrasse 57, P.O. Box, CH, 4002 Basel, Switzerland) performed the present experiment according to their standard methods available as a commercial service provided under secrecy (for an exact disclosure of the method, reference is made to Swiss Tropical Institute). Further, the present experiment enables a comparison between the effect of DON on both Trypanosoma brucei rhodiense and Plasmodium falciparum.

[3] = tested on: Trypanosoma brucei rhodiense; experiment: as above; type: cell-based
Text: as §3

[4] = human bloodstream; cited from earlier work
[5] = in vivo; cited from earlier work

size of the CTP pool after addition of cytidine or cytosine (T. brucei [1]): no change
SMILES: Nc1cc[nH]c(=O)n1 [cytosine]
rescue of trypanosomes from the proliferation block asserted by DON (T. brucei [2]): could not rescue

SMILES: [N-]=[N+]=CC(=O)CC[C@H](N)C(=O)O [DON, 6-diazo-5-oxo-L-norleucine]
effect on the CTP pool (T. brucei [1]): selectively lowered the CTP level; also recorded: lowered the CTP pool
effect on the UTP, ATP or GTP (purine NTP) levels (T. brucei [1]; DON-treated T. brucei): without affecting the UTP, ATP or GTP levels; also recorded: did not alter the purine NTP pools
effect on trypanosome proliferation (T. brucei [2]): very active
concentration that completely blocked trypanosome proliferation (T. brucei [2]; cultured trypanosomes, 160 μM hypoxanthine in medium): 1 µM
DON concentration needed to inhibit proliferation relative to without hypoxanthine (mouse BALB/c fibroblasts; in the presence of 160 μM hypoxanthine): around 20 times
antiproliferative effect of DON (mouse BALB/c fibroblasts; with 10 μM hypoxanthine (consumed during the experiment)): still high
DON concentration needed for a proliferation block (mouse BALB/c fibroblasts; with addition of hypoxanthine): more than 20 μM
DON concentration for maximal inhibition / total block of proliferation (mouse BALB/c fibroblasts; without purines (hypoxanthine) in the culture medium, 72 h): 1 to 2 µM
IC50 (Plasmodium falciparum; KI isolate): 520 nM
IC50 (Plasmodium falciparum; NF54 isolate): 360 nM
IC50 [3]: 430 nM
half-life [4]: a few hours

SMILES: Nc1ccn([C@@H]2O[C@H](CO)[C@@H](O)[C@H]2O)c(=O)n1 [Cytidine, cytidine]
size of the CTP pool after addition of cytidine or cytosine (T. brucei [1]): no change
rescue of trypanosomes from the proliferation block asserted by DON (T. brucei [2]): could not rescue
effect on the DON concentration needed for a proliferation block (mouse BALB/c fibroblasts; cytidine added instead of hypoxanthine): had no such effect

SMILES: [N-]=[N+]=CC(=O)OC[C@H](N)C(=O)O [Azaserine, azaserine]
effect on trypanosome proliferation (T. brucei [2]): had no effect

SMILES: O=c1[nH]cnc2nc[nH]c12 [Hypoxanthine, hypoxanthine]
crossing of the blood-brain barrier [5]: known to cross the blood-brain barrier

effect on the CTP pool (T. brucei [1]): lowered the CTP pool
SMILES: N[C@H](C(=O)O)[C@@H]1CC(Cl)=NO1 [acivicin]
GTP pool reduced by (T. brucei [1]; 1 h incubation with acivicin, not shown in the figure): 50%
effect on trypanosome proliferation (T. brucei [2]): very active
